Assay results: patent US11466024B2, “Bicylic compound acting as an inhibitor” (CHIA TAI TIANQING PHARMACEUTICAL GROUP CO., LTD., priority 2017, dated 2022)
Counter-ions that a name gives are not always drawn. Each block holds one compound with its values, some of them ahead of it.

Columns and labels:
RORγ = biological target: T1, RORγ (Homo sapiens, UniProt P51449); assay: In vitro test for inhibitory activity on RORγ: luciferase reporter cells expressing chimeric Gal4-RORγ receptor; assay type: cell-based; conditions: Gal4 hybrid receptor luciferase reporter, HEK293, 24 hours incubation
T1 sequence (P51449 97-518): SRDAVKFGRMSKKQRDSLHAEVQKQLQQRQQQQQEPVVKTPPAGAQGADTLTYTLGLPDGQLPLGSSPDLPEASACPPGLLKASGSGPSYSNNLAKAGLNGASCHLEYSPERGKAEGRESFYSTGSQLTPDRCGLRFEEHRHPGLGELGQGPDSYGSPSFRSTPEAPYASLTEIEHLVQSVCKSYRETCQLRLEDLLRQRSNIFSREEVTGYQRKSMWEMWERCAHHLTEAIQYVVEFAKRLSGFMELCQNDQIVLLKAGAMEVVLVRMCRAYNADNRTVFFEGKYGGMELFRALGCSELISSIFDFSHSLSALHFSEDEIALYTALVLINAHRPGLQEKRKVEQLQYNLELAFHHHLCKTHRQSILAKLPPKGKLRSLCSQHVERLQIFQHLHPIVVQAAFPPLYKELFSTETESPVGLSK
Protocol: Reporter cells: Reporter cells expressing a chimeric RORγ receptor were used in this experiment. The chimeric RORγ receptor was a RORγ receptor formed by replacing the N-terminal DNA-binding domain of the natural RORγ protein with the DNA-binding domain of the yeast Gal4 protein. The luciferase reporter gene was located at the downstream of the Gal4 activating sequence (UAS).
Step 1: Reporter cells were prepared into a cell suspension using INDIGO's Cell Recovery Medium (CRM, containing 5% fetal bovine serum treated by activated carbon). The cell suspension was dispensed into a white 96-well culture plate in a volume of 100 μl/well.
Step 2: Eight concentration gradients were set for each test compound, and the test was conducted twice at each concentration. Prior to the experiment, the main stock solution of the test compound was serially diluted with DMSO, so as to formulate solutions with “1000×-concentration” relative to each of the final test concentrations. Subsequently, the compound was further diluted with the cell recovery medium (CRM, containing 5% fetal bovine serum treated by activated carbon), so as to formulate test working solutions with “2×-concentration”. As per a volume of 100 μl/well, the test working solutions were respectively added to the test wells in which the reporter cells were added in advance, so as to obtain the desired final test concentrations. The residual concentrations of DMSO in all test wells were 0.1%. The test plate was incubated in a cell incubator for 24 hours. Conditions of the incubator were set as follows: temperature: 37° C., 5% CO2, humidity: ˜85%.
Step 3: After 24 hours of incubation, the liquid in the culture plate was discarded, 100 μl of luciferase detection reagent was added to each test well, and then, the fluorescence intensity (Relative Luminescence Units, RLUs) in each well was read.
In this test, the reference compound ursolic acid was used as an internal standard of a positive compound to verify the inhibitory effect of the test compound on RORγ in reporter cells of a specific batch. The tests for the reference compound and the test compound were performed simultaneously, and the reference compound and the test compound were thus exposed to the same test reagent and environment. The reference compound group containing 0.1% DMSO as solvent was used as an internal standard of a positive compound, so as to determine the effect of the solvent DMSO on the test results and calculate the percentage reduction in RORγ activity.
The test data was managed and archived by Microsoft Excel, and mean±standard deviation (SD) of RLU, fold of reduction, inhibition rate, coefficient of variation (% CV) and Z factor were calculated. Coefficient of variation (% CV): 100×(SD/Ave. RLU); Fold of reduction for inverse agonist: [Ave. […]

RORC2-LBD = biological target: T2, RORC2-LBD (Homo sapiens, UniProt P51449); assay: In vitro test for inhibitory activity on RORγ: TR-FRET screening (RORC2-LBD / SRC1 peptide interaction); assay type: biochemical; conditions: Value of the concentration required for 50% inhibition (EC50) of RORγ, 15 nM RORc-LBD, 200 nM SRC1 peptide, 4° C. overnight
T2 sequence (P51449 269-508 limits assumed): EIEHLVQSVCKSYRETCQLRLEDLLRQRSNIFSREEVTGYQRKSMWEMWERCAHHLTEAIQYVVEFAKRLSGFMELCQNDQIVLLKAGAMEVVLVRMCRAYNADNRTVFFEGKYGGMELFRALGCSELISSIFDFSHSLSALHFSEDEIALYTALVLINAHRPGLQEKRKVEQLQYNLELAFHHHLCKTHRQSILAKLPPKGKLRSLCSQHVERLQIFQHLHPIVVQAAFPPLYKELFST
From the text: The compounds of the present application was able to regulate (inhibit) the bioactivity of the nuclear receptor RORγ, and the strength of this regulatory (inhibitory) effect could be evaluated by a TR-FRET (time-resolved fluorescence resonance energy transfer) screening system. Nuclear receptor cofactors (co-activators and co-inhibitors) could regulate the transcription of a target gene by the interaction with nuclear receptors. If a ligand (test compound) affected the interaction between the nuclear receptors and the cofactors, this ligand (test compound) was able to regulate the transcription of the corresponding gene.
This method adopted the TR-FRET (time-resolved fluorescence resonance energy transfer) technique to determine the ability of a compound to regulate the interaction between the polypeptide indirectly bound to APC […] (namely, APC was indirectly bound to the polypeptide by binding to Streptavidin and biotin) and RORC2-LBD linked to a europium (Eu)-labeled anti-His antibody (Perkin Elmer #AD0111). In the absence of the compound, RORC2 could bind to an APC-modified polypeptide. If the compound was an agonist, it could enhance the interaction between RORC2 and the APC-modified polypeptide after binding to RORC2. On the contrary, if the compound was an inverse agonist, it could inhibit the interaction between RORC2 and the APC-modified polypeptide after binding to RORC2. When the APC-modified polypeptide and the Eu-labeled anti-His antibody-RORC2-LBD complex approached to each other and the distance therebetween was within a certain distance, energy transfer could occur and a TR-FRET signal was generated.
A buffer solution comprising 50 mM Tris (pH 7.0), 50 mM KCl, 1 mM Na-EDTA, 0.01% BSA (0.1 mg/ml), and 0.1 mM DTT was freshly formulated prior to the experiment.
2.3 Formulation of a RORγ-containing working solution. Prior to the test, a working solution containing 1.67 nM Eu/anti-His and 0.75 μl/well of SF9 cell lysate was freshly formulated, and was placed on ice before use. 25.05 nM of RORγ was added to the working solution.
2.5 Ten concentration gradients were set for each test compound, and duplicate wells were set for each concentration. The formulating method of the test compounds was as follows: […]
2) 15 μl of the RORγ-containing working solution was added to columns 1 to 21 of the tested 384-well plate (the final concentration of Eu/anti-His was 1 nM, and the final concentration of RORg was 15 nM); and […]
9) data analysis was performed using the ratio of the numerical value detected at an emission wavelength of 665 nm to the numerical value detected at an emission wavelength of 615 nm. […]

[1] = test system: MOG35-55-induced experimental autoimmune encephalomyelitis (EAE); assay: In vivo pharmacodynamic research on MOG35-55-induced experimental autoimmune encephalomyelitis (EAE) in mice; conditions: G3, 0.5 mg/kg p.o. qd
Protocol: The day of immunization was recorded as day 0, and the subsequent days were marked sequentially. Mice were anesthetized with isoflurane, and 100 μl of the emulsion was administered via subcutaneous injection at three sites (the middle part between shoulder and back, and two sides of the tail that were close to the groin), namely, 33 μl of the emulsion for each site. 0 hour and 48 hours after the injection of the emulsion, 200 ng (i.e. 200 μl) of the PTX solution was intraperitoneal injected. Mice in the normal group were not required to be immunized.
After the immunization on day 0, the immunized mice were randomly divided into 3 groups with 10 mice in each group according to the body weights except for the mice in the normal group, the details were shown in Table 1. FTY720 served as a positive drug, and a dose of […] was an effective dose commonly used in the EAE model.
The first group was normal mice without any treatment; vehicle was administered to the second group; FTY720 was administered to the third group at a dose of 0.5 mg/kg once a day; and the compound of Example 1 was administered to the fourth group at a dose of 75 mg/kg twice a day. The administration lasted for 25 days in total. The volume of intragastric administration was 10 ml/kg.
The day when animals were immunized was day 0. Animal body weights were recorded three times a week from day 0 to day 10, and the body weights and clinical scores of the animals were closely observed and recorded daily from day 11.
The experimental data was expressed as mean±standard error of mean (Mean±SEM).
The area under the curve of clinical scores over time (i.e. “AUC of clinical scores” or “area under the curve of clinical scores”) was calculated by analyzing the curve of clinical scores for each animal in each group, and the inhibition rates of the remaining groups (G1, G3, and G4) relative to G2 (solvent control group) were calculated by the mean AUC of clinical scores among groups.

[2] = test system: imiquimod-induced psoriasis; assay: In vivo pharmacodynamic study in imiquimod (IMQ)-induced psoriasis model in mice; parameters: species or system C57BL/6 mice; key to Clinical scores (Mean ± SEM, n = 8): 0 = no disease, 1 mild, 2 moderate, 3 severe, 4 very severe; conditions: 5 mg/kg, ig
Protocol: 6- to 8-week old female C57BL/6 mice were selected, depilated on the backs, and sensitized two days later except for the sham operation group. On the day of sensitization, the mice were randomly divided into the following 6 groups (8 mice per group). Group I was a sham operation group; Group II was a vehicle control group and PBS was administered; Group III was a positive control group and 5 mg/kg methotrexate was administered; Groups IV, V and VI were ip treatment group, ig treatment group, and topical treatment group of the compound of Example 1, and 75 mg/kg of the compound of Example 1 was administered via intraperitoneal injection, intragastric administration, and dorsal application, respectively. Administration was started on the day of sensitization, once daily for Group III and twice daily for Groups IV to VI. On the day of sensitization, the mice in Groups II to VI were given 60 to 80 mg of imiquimod cream (5%) on the dorsal skin for 4 consecutive days. (Please refer to Bouchaud, G., et al., Epidermal IL-15Ralpha acts as an endogenous antagonist of psoriasiform inflammation in mouse and man. J. Exp. Med., 2013. 210(10): p. 2105-17.)
The mice were weighed daily from the day of sensitization, and the skin scales, induration, and erythema were observed and scored according to a four-grade scoring method: 0 point, no disease; 1 point, mild; 2 points, moderate; 3 points, severe; and 4 points, very severe. (Please refer to Qin, S., et al., Endogenous n-3 polyunsaturated fatty acids protect against imiquimod-induced psoriasis-like inflammation via the IL-17/IL-23 axis. Mol Med Rep, 2014. 9(6): p. 2097-104.)

SMILES: CCCCCCCCc1ccc(CCC(N)(CO)CO)cc1 [FTY720, fingolimod hydrochloride, reference compound]
inhibition rate of AUC of clinical scores relative to solvent control group ([1]; 25 days, FIG. 2): 100%
morbidity of EAE ([1]; from the beginning to end, FIG. 3): 0
body weight changes ([1]; significantly different from solvent control group, FIG. 4): kept increasing

SMILES: CN(Cc1cnc2nc(N)nc(N)c2n1)c1ccc(C(=O)N[C@@H](CCC(=O)O)C(=O)O)cc1 [Methotrexate, reference compound]
Clinical scores (Mean ± SEM, n = 8) ([2]; Day 1): 0 ± 0
Clinical scores (Mean ± SEM, n = 8) ([2]; Day 2): 0.19 ± 0.13
Clinical scores (Mean ± SEM, n = 8) ([2]; Day 3): 0.50 ± 0.13
Clinical scores (Mean ± SEM, n = 8) ([2]; Day 4): 0.88 ± 0.25
Clinical scores (Mean ± SEM, n = 8) ([2]; Day 5): 0.93 ± 0.23

Results, then the compound that gave them:

EC50 (RORγ; Specific value of the concentration required for 50% inhibition (EC50) of RORγ): 147 nM
EC50 (RORγ; Value of the concentration required for 50% Inhibition (EC50) of RORγ): 100 to 500 nM
EC50 (RORC2-LBD): 100 to 500 nM
SMILES: CCS(=O)(=O)c1ccc(CNC(=O)c2cc3c(s2)C(C(C)C)N(CC2CCC(C(F)(F)F)CC2)C3=O)nc1 (single isomer, unassigned) [Example 3]

EC50 (RORC2-LBD): 1000 to 5000 nM
SMILES: CCS(=O)(=O)c1ccc(CNC(=O)c2cc3c(s2)C(C(C)C)N(CC2CCC(C(F)(F)F)CC2)C3=O)nc1 (single isomer, unassigned) [Example 4]

EC50 (RORC2-LBD): < 100 nM
SMILES: CCS(=O)(=O)c1ccc(CNC(=O)c2cc3c(s2)C(C(C)C)N(Cc2ccc(C(F)(F)F)cc2)C3)nc1 (stereo not shown) [Example 9]
